Test results reported in patent publication US20220332836A1, “A METHOD FOR PREVENTING HUMAN VIRUS ASSOCIATED DISORDERS IN PATIENTS” (NOVARTIS AG, priority 2019, published 2022).

Legend:
[1] = test system: EBV-seropositive EBV-B cell/T cell co-cultures; assay: EBV-B cell/T cell co-culture, EBV-seropositive donors
[2] = test system: PBMC incubated with EBV supernatant; assay: EBV regression assay with PBMC; format: cell-based, human
Protocol: Buffy coats from six healthy volunteers (18-001 to 18-006) were received from Blutspendezentrum Bern. Peripheral blood mononuclear cells (PBMC) were isolated using LeucoSep tubes following manufacturer's instructions, counted with TC20 and adjusted in cell culture medium (Medium, buffers and reagents). All conditions (see Table 3-2) were run in five replicates in 96-well U-bottom plates and contained 2×10^5 cells/well. PBMC were incubated for 10-15 minutes at 37° C. before adding cell culture medium containing EBV-supernatant and transferrin (see Medium, buffers and reagents). […] Cell pellets were stained and analyzed by flow cytometry (FACS staining procedure).
In FIG. 1, the gating strategy is shown.

[3] = test system: EBV-seronegative EBV-B cell/T cell co-cultures; assay: EBV-B cell/T cell co-culture, EBV-seronegative donors; format: cell-based, human
[4] = target: T1, human CD40 (human, UniProt P25942 21-193, limits assumed); assay: method not stated
T1 construct: also called tumor necrosis factor receptor superfamily member 5

[5] = test system: NK cell-depleted PBMC cultures; assay: EBV regression assay, complete or NK cell-depleted PBMC; format: cell-based, human; settings: 14 days
Description: (§1) FIG. 16 provides CD3^+ T cell counts from the NK cell-depleted PBMC regression assay after 14 days of culture measured by flow cytometry. Antibodies (in μg/mL) and CsA (in μM) were given in combination with EBV supernatants (except the negative control=medium w/o EBV). Dotted horizontal line was set to the condition ‘medium+EBV’. Data are shown as mean+SEM (n=4).
as §1, with “17” for “16”, “CD19^+ B cell counts from the PBMC regression assay after 14 days of culture measured by flow cytometry. Antibodies (in μg/mL) and CsA (in μM) were given in combination with EBV supernatants (except the negative control=medium w/o EBV). Dotted horizontal line was set to the condition ‘medium+EBV’. Data are shown as mean+SEM (n=4); and CD19^+ B” for “CD3^+ T”
All conditions except ‘medium w/o EBV’ were incubated with EBV supernatant and respective compound or antibodies. […] Looking at the CD19+ B cell proliferation (FIG. 3), there was an obvious increase in CD19+ B cell counts when PBMC were incubated with EBV supernatant compared to PBMC cultured with medium only (medium w/o EBV). […]

[6] = 10-200 μg/mL, priming, recall, priming and recall, 11 days
[7] = 14 days, CsA 0.1, 1 μM, Belatacept 10, 50 μg/mL, CFZ533, hIgG1 10-200 μg/mL, vs medium+EBV

T1 sequence (P25942 21-193 limits assumed): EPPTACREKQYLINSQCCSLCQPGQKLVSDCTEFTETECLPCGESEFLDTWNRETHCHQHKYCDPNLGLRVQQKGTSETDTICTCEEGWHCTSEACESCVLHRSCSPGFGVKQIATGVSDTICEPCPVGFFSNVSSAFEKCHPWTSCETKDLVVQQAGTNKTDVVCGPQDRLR

Molecule: Belatacept: CTLA4-Ig fusion protein; blocks CD80/CD86 and thereby inhibits T cell costimulation
- CD3+ T cell proliferation [1, 6]: reduced
- CD4+ T cell proliferation [1, 6]: reduced
- CD3+ T cell proliferation ([1]; 100 and 200 μg/mL): only an reducing effect on the T cell proliferation at the ‘priming and recall’ phase
- CD4+ T cell proliferation ([1]; 100 and 200 μg/mL, priming and recall phase): robust reducing effect
- CD3+ T cell proliferation, 10 and 50 μg/mL versus 100 and 200 μg/mL ([1]; all three conditions): slightly stronger but not significant suppression pattern
- CD4+ T cell proliferation, 10 and 50 μg/mL versus 100 and 200 μg/mL ([1]; all three conditions): slightly stronger but not significant suppression pattern
- EBV-mediated T cell proliferation and IFNγ secretion in presence of EBV-B cells ([1]; co-culture system, EBV-B cells sero-positive and sero-negative): reduced
- CD3+ T cell counts [2, 7]: to a lesser degree than with CsA
- CD19+ B cell counts [2, 7]: increase
- T cell activity (resulting in over-growth of in vitro immortalized cells) ([2]; EBV regression assay): reduced
- CD4+ T cell proliferation, differences between the four doses ([3]; 10, 50, 100 and 200 μg/mL): no evident differences
- CD4+ T cell proliferation ([3]; 10-200 μg/mL, all three conditions): reduced
- CD3+ T cell proliferation [3, 6]: reduced
- CD8+ T cell proliferation ([3]; 10 and 50 μg/mL, recall only and priming and recall): only a reducing effect
- CD3+ T cell proliferation ([3]; 100 and 200 μg/mL, priming and recall condition): only a reducing effect
- CD3+ T cell proliferation ([3]; 100 and 200 μg/mL, priming or recall only condition): only minor
- CD8+ T cell proliferation ([3]; 100 and 200 μg/mL, priming phase only): increased
- CD3+ T cell proliferation, 10 and 50 μg/mL versus 100 and 200 μg/mL ([3]; all three conditions): slightly stronger but not significant suppression pattern

B1: mAb1 (antibody, human IgG1, kappa, N297A, V domains shown)
VH: QVQLVESGGGVVQPGRSLRLSCAASGFTFSSYGMHWVRQAPGKGLEWVAVISYEESNRYHADSVKGRFTISRDNSKITLYLQMNSLRTEDTAVYYCARDGGIAAPGPDYWGQGTLVTVSS
VL: DIVMTQSPLSLTVTPGEPASISCRSSQSLLYSNGYNYLDWYLQKPGQSPQVLISLGSNRASGVPDRFSGSGSGTDFTLKISRVEAEDVGVYYCMQARQTPFTFGPGTKVDIRR
notes: also called CFZ533; Iscalimab
- Kd [4]: 0.3 nM

B2: HCD122: a depleting CD40 mAb as positive control (antibody, chains of the INN, looked up, V domains shown)
VH: B1 VH
VL: DIVMTQSPLSLTVTPGEPASISCRSSQSLLYSNGYNYLDWYLQKPGQSPQVLISLGSNRASGVPDRFSGSGSGTDFTLKISRVEAEDVGVYYCMQARQTPFTFGPGTKVDIR
- CD19+ B cell counts [5]: did deplete B cells
